In general, IC50 refers to the midpoint of a concentration-inhibition curve.

The source of these data is patent US7939265B2, “Agents for and method of quantifying binding” (Badrilla Limited, priority 2004, dated 2011).

Where no end group is shown, it is not given here. [ ]: non-standard residue; d: D form. pS = N[C@@H](COP(=O)(O)O)C(=O)O

This assay has as its system polyclonal antiserum SERCA PS-38. The experiment in a line: Peptide inhibition of antiserum SERCA PS-38 binding to antigen. Details: species or system rabbit. The following applies: competition against polyclonal antiserum SERCA PS-38. Here is the method: Phosphorylated Ca^2+-ATPase peptide on Ser-38 residue (^31KLKERWGS (PO4)NEL^41) was prepared by the CaMKII phosphorylation of peptide ^31KLKERWGSNEL^41. The phosphopeptide was purified to homogeneity by reverse phase high performance liquid chromatography. Peptide was conjugated to keyhole limpet haemocyanin (KLH) using carbodiimide cross linkage (3) and dialysed extensively against buffer (50 mM Tris-HCl pH 7.2, 150 mM NaCl). Adult New Zealand White rabbits were immunised with ˜150 μg KLH and attached peptide at 6 weeks intervals and immune serum collected 11 days after immunisations. Serum was prepared and stored at −70° C. A polyclonal antiserum is described herein: SERCA PS-38 raised to the phosphorylated peptide.
The phosphorylation of SERCA2 on Ser-38 has been described as a regulatory feature capable of very significant activation of Ca2+-ATPase activity. This site, although unique to SERCA2, is contained within a segment of the protein which is highly conserved between SERCA1 and SERCA2 particularly from residue 39 onwards. […] By analogy with SERCA1, for which two high resolution structures exist the Ser-38 site of phosphorylation on SERCA2 is predicted to be in a surface exposed, highly mobile segment of the protein. […]

Take “31KLKERWGSNEL41 (UniProt P16615 31-41, looked up, fragment) [dephosphorylated peptide, equivalent dephosphorylated SERCA2a Ser-38 peptide]”: the “interference with antibody:antigen recognition” value is “unable to interfere with antibody:antigen recognition”.

Take “31KLKERWGS(PO4)NEL41 (KLKERWG[pS]NEL; UniProt P16615 31-41, looked up, fragment) [phosphopeptide]”: for the setting “read-out: inhibition of antibody binding to antigen (IC50)”, the IC50 was 18 nM.
